Data as given in PMC5218480 (PLoS ONE, 2017).

System: MV-4-11 cells
Assay: Gene expression microarray analysis (Affymetrix PrimeView) and GSEA
Format: cell-based, human
Parameters: RFU PODN (11730768_x_at) / Fold change /veh PODN (11730768_x_at) / RFU LINC00158 (11744669_a_at) / Fold change /veh LINC00158 (11744669_a_at) / RFU DUSP10 (11751237_a_at) / Fold change /veh DUSP10 (11751237_a_at) / RFU ID3 (11757404_x_at) / Fold change /veh ID3 (11757404_x_at) / RFU PLEKHG5 (11737974_s_at) / Fold change /veh PLEKHG5 (11737974_s_at) / RFU LRRC4B (11730491_at) / Fold change /veh LRRC4B (11730491_at) / RFU GIMAP4 (11747438_a_at) / Fold change /veh GIMAP4 (11747438_a_at) / RFU KRT8 (11758183_x_at) / Fold change /veh KRT8 (11758183_x_at) / RFU CNN1 (11734310_a_at) / Fold change /veh CNN1 (11734310_a_at) / RFU VPS37D (11726825_at) / Fold change /veh VPS37D (11726825_at) / RFU C10orf10 (11716522_x_at) / Fold change /veh C10orf10 (11716522_x_at) / RFU KIR2DL2 /// KIR2DL4 /// KIR2DL5A /// KIR2DL5B /// KIR2DS1 /// KIR2DS2 /// KIR2DS3 /// KIR2DS4 /// KIR3DL3 /// KIR3DL3 /// KIR3DS1 (11738374_at) / Fold change /veh KIR2DL2 /// KIR2DL4 /// KIR2DL5A /// KIR2DL5B /// KIR2DS1 /// KIR2DS2 /// KIR2DS3 /// KIR2DS4 /// KIR3DL3 /// KIR3DL3 /// KIR3DS1 (11738374_at) / RFU C1QL1 (11718748_at) / Fold change /veh C1QL1 (11718748_at) / RFU TMPRSS4 (11747572_a_at) / Fold change /veh TMPRSS4 (11747572_a_at) / RFU HAMP (11756126_x_at) / Fold change /veh HAMP (11756126_x_at) / RFU RNFT2 (11725882_a_at) / Fold change /veh RNFT2 (11725882_a_at) / RFU NR4A2 (11747474_a_at) / Fold change /veh NR4A2 (11747474_a_at) / RFU ABCC12 (11746883_a_at) / Fold change /veh ABCC12 (11746883_a_at) / RFU TMEM136 (11760407_x_at) / Fold change /veh TMEM136 (11760407_x_at) / RFU CLDN22 /// WWC2 (11732394_at) / Fold change /veh CLDN22 /// WWC2 (11732394_at) / RFU HLA-DPB1 (11760878_x_at) / Fold change /veh HLA-DPB1 (11760878_x_at) / RFU SPINT1 (11716480_a_at) / Fold change /veh SPINT1 (11716480_a_at) / RFU GAP43 (11754022_s_at) / Fold change /veh GAP43 (11754022_s_at) / RFU A4GNT (11735810_at) / Fold change /veh A4GNT (11735810_at) / RFU PRB3 (11715151_x_at) / Fold change /veh PRB3 (11715151_x_at) / RFU TUBB4B (11761932_at) / Fold change /veh TUBB4B (11761932_at) / RFU CAPN14 (11732068_a_at) / Fold change /veh CAPN14 (11732068_a_at) / RFU TMCC2 (11721928_a_at) / Fold change /veh TMCC2 (11721928_a_at) / RFU IRGQ (11745062_a_at) / Fold change /veh IRGQ (11745062_a_at) / RFU FAM174B (11720279_a_at) / Fold change /veh FAM174B (11720279_a_at) / RFU TMPRSS4 (11748680_a_at) / Fold change /veh TMPRSS4 (11748680_a_at) / RFU FAM212B (11763350_a_at) / Fold change /veh FAM212B (11763350_a_at) / RFU PLEKHG5 (11743358_a_at) / Fold change /veh PLEKHG5 (11743358_a_at) / RFU ZSCAN30 (11745921_a_at) / Fold change /veh ZSCAN30 (11745921_a_at) / RFU CMKLR1 (11741424_a_at) / Fold change /veh CMKLR1 (11741424_a_at) / RFU LOC101060620 /// MAPK8IP1 (11723275_at) / Fold change /veh LOC101060620 /// MAPK8IP1 (11723275_at) / RFU SPTSSB (11747773_x_at) / Fold change /veh SPTSSB (11747773_x_at) / RFU PRSS12 (11739890_at) / Fold change /veh PRSS12 (11739890_at) / RFU BIN1 (11741810_x_at) / Fold change /veh BIN1 (11741810_x_at) / RFU WNT11 (11732464_a_at) / Fold change /veh WNT11 (11732464_a_at) / RFU C10orf10 (11716521_a_at) / Fold change /veh C10orf10 (11716521_a_at) / RFU C5orf56 (11738089_at) / Fold change /veh C5orf56 (11738089_at) / RFU CYB561 (11721691_x_at) / Fold change /veh CYB561 (11721691_x_at) / RFU ANKRD19P (11752326_a_at) / Fold change /veh ANKRD19P (11752326_a_at) / RFU OR2T12 /// OR2T33 /// OR2T8 (11738714_s_at) / Fold change /veh OR2T12 /// OR2T33 /// OR2T8 (11738714_s_at) / RFU VCAN (11748164_a_at) / Fold change /veh VCAN (11748164_a_at) / RFU JSRP1 (11732532_at) / Fold change /veh JSRP1 (11732532_at) / RFU KRTAP10-11 (11738290_x_at) / Fold change /veh KRTAP10-11 (11738290_x_at) / RFU MYO3A (11730013_a_at) / Fold change /veh MYO3A (11730013_a_at) / RFU EBF3 (11725865_a_at) / Fold change /veh EBF3 (11725865_a_at) / RFU CAMK2N1 (11719241_x_at) / Fold change /veh CAMK2N1 (11719241_x_at) / RFU C5orf56 (11738088_a_at) / Fold change /veh C5orf56 (11738088_a_at) / RFU OLFML3 (11715873_a_at) / Fold change /veh OLFML3 (11715873_a_at) / RFU LOC100653217 /// NTM (11731650_a_at) / Fold change /veh LOC100653217 /// NTM (11731650_a_at) / RFU MAPK11 (11762145_a_at) / Fold change /veh MAPK11 (11762145_a_at) / RFU FIZ1 (11724087_x_at) / Fold change /veh FIZ1 (11724087_x_at) / RFU OASL (11726364_x_at) / Fold change /veh OASL (11726364_x_at) / RFU SOX15 (11748057_x_at) / Fold change /veh SOX15 (11748057_x_at) / RFU CD79A (11719716_a_at) / Fold change /veh CD79A (11719716_a_at) / RFU HIST1H1D (11736915_at) / Fold change /veh HIST1H1D (11736915_at) / RFU CASKIN2 (11723855_a_at) / Fold change /veh CASKIN2 (11723855_a_at) / RFU LOC730098 (11760151_x_at) / Fold change /veh LOC730098 (11760151_x_at) / RFU OR4N2 (11742367_at) / Fold change /veh OR4N2 (11742367_at) / RFU PRRT2 (11749266_a_at) / Fold change /veh PRRT2 (11749266_a_at) / RFU SNX32 (11753110_a_at) / Fold change /veh SNX32 (11753110_a_at) / RFU CDHR5 (11726645_a_at) / Fold change /veh CDHR5 (11726645_a_at) / RFU RCAN1 (11760418_a_at) / Fold change /veh RCAN1 (11760418_a_at) / RFU FAM167A (11723789_a_at) / Fold change /veh FAM167A (11723789_a_at) / RFU FAM26E (11764081_at) / Fold change /veh FAM26E (11764081_at) / RFU ISYNA1 (11749810_s_at) / Fold change /veh ISYNA1 (11749810_s_at) / RFU ACY1 (11761880_at) / Fold change /veh ACY1 (11761880_at) / RFU 11764098_at / Fold change /veh 11764098_at / RFU SAMD14 (11745864_x_at) / Fold change /veh SAMD14 (11745864_x_at) / RFU NPB (11741838_a_at) / Fold change /veh NPB (11741838_a_at) / RFU TMPRSS6 (11731388_a_at) / Fold change /veh TMPRSS6 (11731388_a_at) / RFU KRTAP10-2 (11738614_at) / Fold change /veh KRTAP10-2 (11738614_at) / RFU ARHGAP8 /// PRR5-ARHGAP8 (11727945_x_at) / Fold change /veh ARHGAP8 /// PRR5-ARHGAP8 (11727945_x_at) / RFU KRTAP5-7 /// NADSYN1 (11734609_at) / Fold change /veh KRTAP5-7 /// NADSYN1 (11734609_at) / RFU RASL12 (11751679_a_at) / Fold change /veh RASL12 (11751679_a_at) / RFU CDKN2B (11736163_a_at) / Fold change /veh CDKN2B (11736163_a_at) / RFU PRF1 (11729649_at) / Fold change /veh PRF1 (11729649_at) / RFU, ZNF638 /// ZNF638-IT1 / Fold change vs veh, ZNF638 /// ZNF638-IT1 / RFU, PANK3 / Fold change vs veh, PANK3 / RFU, SH3YL1 / Fold change vs veh, SH3YL1 / RFU, ZEB2 / Fold change vs veh, ZEB2 / RFU, NRIP1 / Fold change vs veh, NRIP1 / RFU, PTTG1IP / Fold change vs veh, PTTG1IP / RFU, CAPN2 / Fold change vs veh, CAPN2 / RFU, MED14 / Fold change vs veh, MED14 / RFU, SNORA58 / Fold change vs veh, SNORA58 / RFU, C1orf63 / Fold change vs veh, C1orf63 / RFU, LRRFIP1 / Fold change vs veh, LRRFIP1 / RFU, NDUFAF7 / Fold change vs veh, NDUFAF7 / RFU, SLC12A2 / Fold change vs veh, SLC12A2 / RFU, IBTK / Fold change vs veh, IBTK / RFU, ESF1 / Fold change vs veh, ESF1 / Fold change vs veh, TMEM50B / RFU, TAOK1 / Fold change vs veh, TAOK1 / RFU, ACBD3 / Fold change vs veh, ACBD3 / RFU, TMA16 / Fold change vs veh, TMA16 / RFU, RWDD3 / Fold change vs veh, RWDD3 / RFU, BCAT1 / Fold change vs veh, BCAT1 / RFU, EDEM3 / Fold change vs veh, EDEM3 / RFU, TMEM33 / Fold change vs veh, TMEM33 / RFU, WDR75 / Fold change vs veh, WDR75 / RFU, AHCTF1 / Fold change vs veh, AHCTF1 / RFU, TFRC / Fold change vs veh, TFRC / RFU, ZDHHC17 / Fold change vs veh, ZDHHC17 / RFU, NOM1 / Fold change vs veh, NOM1 / RFU, ARL8B / Fold change vs veh, ARL8B / RFU, ZBTB11 / Fold change vs veh, ZBTB11 / RFU, TAMM41 / Fold change vs veh, TAMM41 / RFU, KIAA1704 /// LOC100996395 / Fold change vs veh, KIAA1704 /// LOC100996395 / RFU, ING1 / Fold change vs veh, ING1 / RFU, TRMT61B / Fold change vs veh, TRMT61B / RFU, FUBP3 / Fold change vs veh, FUBP3 / RFU, TP53 / Fold change vs veh, TP53 / RFU, TNKS2 / Fold change vs veh, TNKS2 / RFU, ZFP14 / Fold change vs veh, ZFP14 / RFU, ACTR2 / Fold change vs veh, ACTR2 / RFU, PPP3R1 / Fold change vs veh, PPP3R1 / RFU, PIK3R1 / Fold change vs veh, PIK3R1 / RFU, HNRNPA1 / Fold change vs veh, HNRNPA1 / RFU, RNF170 / Fold change vs veh, RNF170 / RFU, ZNF28 / Fold change vs veh, ZNF28 / RFU, RNGTT / Fold change vs veh, RNGTT / RFU, OGT / Fold change vs veh, OGT / RFU, BRD1 / Fold change vs veh, BRD1 / RFU, MARS / Fold change vs veh, MARS / RFU, ZNF655 / Fold change vs veh, ZNF655 / RFU, FAHD1 / Fold change vs veh, FAHD1 / RFU, BDP1 / Fold change vs veh, BDP1 / RFU, LRRCC1 / Fold change vs veh, LRRCC1 / RFU, ARID1A / Fold change vs veh, ARID1A / RFU, ZNF146 / Fold change vs veh, ZNF146 / RFU, ZNF330 / Fold change vs veh, ZNF330 / RFU, GPN3 / Fold change vs veh, GPN3 / RFU, C9orf123 / Fold change vs veh, C9orf123 / RFU, N4BP2L2 / Fold change vs veh, N4BP2L2 / RFU, ARFIP1 / Fold change vs veh, ARFIP1 / RFU, FAM179B / Fold change vs veh, FAM179B / RFU, BCL10 / Fold change vs veh, BCL10 / RFU, UHRF1BP1L / Fold change vs veh, UHRF1BP1L / RFU, BET1 / Fold change vs veh, BET1 / RFU, CNOT2 / Fold change vs veh, CNOT2 / RFU, ZNF268 / Fold change vs veh, ZNF268 / Fold change vs veh, ZNF507 / RFU, DGCR2 / Fold change vs veh, DGCR2 / RFU, WDSUB1 / Fold change vs veh, WDSUB1 / Fold change vs veh, HSP90B1 /// MIR3652 / RFU, ADSS / Fold change vs veh, ADSS / RFU, GK / Fold change vs veh, GK / RFU, ZNF148 / Fold change vs veh, ZNF148 / RFU, TAF9 / Fold change vs veh, TAF9 / RFU, SLC1A5 / Fold change vs veh, SLC1A5 / RFU, SLMO2 / Fold change vs veh, SLMO2 / RFU, ABCC4 / Fold change vs veh, ABCC4 / RFU, LOC101060439 /// RAP1B / Fold change vs veh, LOC101060439 /// RAP1B / RFU, RFX7 / Fold change vs veh, RFX7 / RFU, GTPBP10 / Fold change vs veh, GTPBP10 / RFU, CNEP1R1 / Fold change vs veh, CNEP1R1 / RFU, BIVM-ERCC5 /// ERCC5 / Fold change vs veh, BIVM-ERCC5 /// ERCC5 / RFU, ILF3 / Fold change vs veh, ILF3 / RFU 11762660_at / Fold change /veh 11762660_at / RFU VCAN (11757783_s_at) / Fold change /veh VCAN (11757783_s_at) / RFU DDX43 (11728927_at) / Fold change /veh DDX43 (11728927_at) / RFU KRT8 (11758188_x_at) / Fold change /veh KRT8 (11758188_x_at) / RFU NKD1 (11759106_at) / Fold change /veh NKD1 (11759106_at) / RFU SRD5A1 (11742802_a_at) / Fold change /veh SRD5A1 (11742802_a_at) / RFU TPSAB1 /// TPSB2 (11721975_s_at) / Fold change /veh TPSAB1 /// TPSB2 (11721975_s_at) / RFU GSTM3 (11746129_a_at) / Fold change /veh GSTM3 (11746129_a_at) / RFU IL23R (11737362_x_at) / Fold change /veh IL23R (11737362_x_at) / RFU TMEM51 (11727254_a_at) / Fold change /veh TMEM51 (11727254_a_at) / RFU PIWIL2 (11732686_x_at) / Fold change /veh PIWIL2 (11732686_x_at) / RFU ORM1 (11744905_x_at) / Fold change /veh ORM1 (11744905_x_at) / RFU CCDC152 (11743942_at) / Fold change /veh CCDC152 (11743942_at) / RFU ECM1 (11717891_a_at) / Fold change /veh ECM1 (11717891_a_at) / RFU IL23R (11748794_a_at) / Fold change /veh IL23R (11748794_a_at) / RFU TNFAIP8L3 (11732012_x_at) / Fold change /veh TNFAIP8L3 (11732012_x_at) / RFU MBOAT4 (11741988_at) / Fold change /veh MBOAT4 (11741988_at) / RFU 11764193_at / Fold change /veh 11764193_at / RFU TMEM53 (11763286_at) / Fold change /veh TMEM53 (11763286_at) / RFU MAGEB2 (11727129_at) / Fold change /veh MAGEB2 (11727129_at) / RFU TMEM200A (11744735_a_at) / Fold change /veh TMEM200A (11744735_a_at) / RFU CCDC152 (11751479_a_at) / Fold change /veh CCDC152 (11751479_a_at) / RFU FAM211A (11726209_a_at) / Fold change /veh FAM211A (11726209_a_at) / RFU RGS16 (11746705_a_at) / Fold change /veh RGS16 (11746705_a_at) / RFU VCAN (11755009_s_at) / Fold change /veh VCAN (11755009_s_at) / RFU RHOB (11743442_s_at) / Fold change /veh RHOB (11743442_s_at) / RFU RGS16 (11720943_a_at) / Fold change /veh RGS16 (11720943_a_at) / RFU RGS16 (11720944_at) / Fold change /veh RGS16 (11720944_at) / RFU, VPS4B / Fold change vs veh, VPS4B / RFU, CREB1 / Fold change vs veh, CREB1 / RFU, DNAJC13 / Fold change vs veh, DNAJC13 / RFU, GNAQ / Fold change vs veh, GNAQ / RFU, CDK5R1 / Fold change vs veh, CDK5R1 / RFU, ZRANB3 / Fold change vs veh, ZRANB3 / RFU, CUL4A / Fold change vs veh, CUL4A / RFU, CCNY / Fold change vs veh, CCNY / RFU, UFL1 / Fold change vs veh, UFL1 / RFU, COG3 / Fold change vs veh, COG3 / RFU, DIAPH2 / Fold change vs veh, DIAPH2 / RFU, SKA2 / Fold change vs veh, SKA2 / RFU, AFF3 / Fold change vs veh, AFF3 / RFU, LMF1 / Fold change vs veh, LMF1 / RFU, IPO11 / Fold change vs veh, IPO11 / RFU, DFFB / Fold change vs veh, DFFB / RFU, FOXP1 / Fold change vs veh, FOXP1 / RFU, CARD8 / Fold change vs veh, CARD8 / RFU, STRN3 / Fold change vs veh, STRN3 / RFU, ADK / Fold change vs veh, ADK / RFU, RASSF2 / Fold change vs veh, RASSF2 / RFU, WIPF1 / Fold change vs veh, WIPF1 / RFU, LARP1B / Fold change vs veh, LARP1B / RFU, RASA1 / Fold change vs veh, RASA1 / RFU, RB1 / Fold change vs veh, RB1 / RFU, PPFIA1 / Fold change vs veh, PPFIA1 / RFU, MAT2A / Fold change vs veh, MAT2A / RFU, CCT5 / Fold change vs veh, CCT5 / RFU, WDR92 / Fold change vs veh, WDR92 / RFU, CUX1 / Fold change vs veh, CUX1 / RFU, TTC7A / Fold change vs veh, TTC7A / RFU, TMEM135 / Fold change vs veh, TMEM135 / RFU, DEPTOR / Fold change vs veh, DEPTOR / RFU, CPM / Fold change vs veh, CPM / RFU, DNAJB6 / Fold change vs veh, DNAJB6 / RFU, CACNA2D3 / Fold change vs veh, CACNA2D3 / RFU, DTX4 / Fold change vs veh, DTX4 / RFU, TFCP2 / Fold change vs veh, TFCP2 / RFU, GMCL1 /// GMCL1P1 / Fold change vs veh, GMCL1 /// GMCL1P1 / RFU, AEBP2 / Fold change vs veh, AEBP2 / RFU, SNHG1 /// SNORD22 /// SNORD25 /// SNORD26 /// SNORD27 /// SNORD28 /// SNORD29 /// SNORD31 / Fold change vs veh, SNHG1 /// SNORD22 /// SNORD25 /// SNORD26 /// SNORD27 /// SNORD28 /// SNORD29 /// SNORD31 / Fold change (Aza/veh), C12orf56 (ProbeSet 11735607_a_at) / Fold change (ACY-1035/veh), C12orf56 (ProbeSet 11735607_a_at) / Fold change (Aza/veh), FGFR1OP (ProbeSet 11751329_s_at) / Fold change (ACY-1035/veh), FGFR1OP (ProbeSet 11751329_s_at) / Fold change (Aza/veh), VPS36 (ProbeSet 11739960_a_at) / Fold change (ACY-1035/veh), VPS36 (ProbeSet 11739960_a_at) / RFU SYPL1 (11715823_x_at) / Fold change /veh SYPL1 (11715823_x_at) / RFU IGFBP7 (11715501_s_at) / Fold change /veh IGFBP7 (11715501_s_at) / RFU REEP3 (11722064_at) / Fold change /veh REEP3 (11722064_at) / RFU IGLL1 (11728026_x_at) / Fold change /veh IGLL1 (11728026_x_at): dose or concentration left out as unconfirmed
Details: MV-4-11 cells, 48 hours

Nc1ccc(-c2cccs2)cc1NC(=O)c1ccc2c(c1)cc(C1CC1)n2CCN1CCOCC1 [ACY-1035]
Fold change /veh C10orf10 (11716521_a_at): 0.91
